Source: PMC9126886, “Yeast-based directed-evolution for high-throughput structural stabilization of G protein-coupled receptors (GPCRs)” (Scientific Reports, 2022)

Key:
Test in all cases: saturation binding of fluorescent ligand, flow cytometry, permeabilized yeast
Assay type in all cases: cell-based
Conditions in all cases: PBS, 1% DMSO, 22 °C, 1 h; apparent affinity; labelled compound (fluorescent ligand itself); no G protein
[1] = target: T1, A2aR (Homo sapiens, UniProt P29274)
T1 construct: gene ADORA2A; full-length receptor with C-terminus (positions to 412), N-terminal synthetic pre-pro leader, no eGFP; pYES2 (subcloned from pITy-MC-His10), permeabilized S. cerevisiae BY4741
T1 sequence (P29274 whole entry): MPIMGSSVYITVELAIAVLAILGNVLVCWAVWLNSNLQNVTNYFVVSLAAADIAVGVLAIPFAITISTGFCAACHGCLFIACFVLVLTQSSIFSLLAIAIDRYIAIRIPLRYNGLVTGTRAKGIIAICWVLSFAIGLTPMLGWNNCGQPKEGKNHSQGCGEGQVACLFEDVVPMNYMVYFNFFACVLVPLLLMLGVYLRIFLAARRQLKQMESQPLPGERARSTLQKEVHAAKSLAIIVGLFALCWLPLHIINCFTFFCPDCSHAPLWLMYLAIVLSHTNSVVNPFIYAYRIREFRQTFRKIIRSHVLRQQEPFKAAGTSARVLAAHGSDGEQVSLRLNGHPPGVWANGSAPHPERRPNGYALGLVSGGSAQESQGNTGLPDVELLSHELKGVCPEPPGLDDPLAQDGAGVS
Source text: (§1) saturation binding of fluorescent ligand, flow cytometry, permeabilized yeast on A2aR

[2] = target: T2, A2aR (Homo sapiens, UniProt P29274, P313S/P354A)
T2 construct: gene ADORA2A; full-length receptor with C-terminus (positions to 412), N-terminal synthetic pre-pro leader, no eGFP; pYES2 (subcloned from pITy-MC-His10), permeabilized S. cerevisiae BY4741
T2 sequence (P29274 whole entry P313S/P354A): as the sequence (P29274 whole entry) above, with P313S, P354A counted along it
Source text: as §1

[3] = target: T3, A2aR (Homo sapiens, UniProt P29274, N34K)
T3 construct: gene ADORA2A; full-length receptor with C-terminus (positions to 412), N-terminal synthetic pre-pro leader, no eGFP; pYES2 (subcloned from pITy-MC-His10), permeabilized S. cerevisiae BY4741
T3 sequence (P29274 whole entry N34K): as the sequence (P29274 whole entry) above, with N34K counted along it
Source text: as §1

logEC50 ± SE^c [1]: −8.01 ± 0.06 | logEC50 ± SE^c [2]: −8.90 ± 0.03 | logEC50 ± SE^c [3]: −7.78 ± 0.04
Substance: CA200623
